Assay results taken from ChEMBL document CHEMBL5316298, “Discovery of Amphiphilic Xanthohumol Derivatives as Membrane-Targeting Antimicrobials against Methicillin-Resistant Staphylococcus aureus” (J Med Chem, 2023).

Assays:
Staphylococcus aureus [1] = assay: Antibacterial activity against methicillin-resistant Staphylococcus aureus clinical isolate 10 incubated for 16 to 18 hrs by CLSI-based microbroth dilution method; type: functional; conditions: time 16-18 hrs
Staphylococcus aureus [2] = assay: Antibacterial activity against methicillin-resistant Staphylococcus aureus clinical isolate 8 incubated for 16 to 18 hrs by CLSI-based microbroth dilution method; type: functional; conditions: time 16-18 hrs
Staphylococcus aureus [3] = assay: Antibacterial activity against methicillin-resistant Staphylococcus aureus clinical isolate 5 incubated for 16 to 18 hrs by CLSI-based microbroth dilution method; type: functional; conditions: time 16-18 hrs
Staphylococcus aureus [4] = assay: Antibacterial activity against methicillin-resistant Staphylococcus aureus clinical isolate 6 incubated for 16 to 18 hrs by CLSI-based microbroth dilution method; type: functional; conditions: time 16-18 hrs
Staphylococcus aureus [5] = assay: Antibacterial activity against methicillin-resistant Staphylococcus aureus clinical isolate 2 incubated for 16 to 18 hrs by CLSI-based microbroth dilution method; type: functional; conditions: time 16-18 hrs
Staphylococcus aureus [6] = assay: Antibacterial activity against methicillin-resistant Staphylococcus aureus clinical isolate 3 incubated for 16 to 18 hrs by CLSI-based microbroth dilution method; type: functional; conditions: time 16-18 hrs
Staphylococcus aureus [7] = assay: Antibacterial activity against methicillin-resistant Staphylococcus aureus clinical isolate 4 incubated for 16 to 18 hrs by CLSI-based microbroth dilution method; type: functional; conditions: time 16-18 hrs
Staphylococcus aureus [8] = assay: Antibacterial activity against Staphylococcus aureus ATCC 29213 incubated for 16 to 18 hrs by CLSI-based microbroth dilution method; type: functional; conditions: time 16-18 hrs
Staphylococcus aureus [9] = assay: Antibacterial activity against methicillin-resistant Staphylococcus aureus clinical isolate 9 incubated for 16 to 18 hrs by CLSI-based microbroth dilution method; type: functional; conditions: time 16-18 hrs
[10] = Hemolytic activity in sheep erythrocytes incubated for 1 hr by absorbance based analysis; type: toxicity, cell-based, Ovis aries, Erythrocyte
Staphylococcus aureus [11] = assay: Antibacterial activity against methicillin-resistant Staphylococcus aureus clinical isolate 7 incubated for 16 to 18 hrs by CLSI-based microbroth dilution method; type: functional; conditions: time 16-18 hrs
Staphylococcus aureus [12] = assay: Antibacterial activity against methicillin-resistant Staphylococcus aureus clinical isolate 1 incubated for 16 to 18 hrs by CLSI-based microbroth dilution method; type: functional; conditions: time 16-18 hrs

Work on `CCCCN(CCCC)C(=O)C[N+](C)(C)CCCCCOc1ccc(/C=C/C(=O)c2c(OC)cc3c(c2O)C=CC(C)(C)O3)cc1.[Br-]` yielded an MIC (Staphylococcus aureus [1]) of 2 µg/mL, an MIC (Staphylococcus aureus [2]) of 4 µg/mL and an MIC (Staphylococcus aureus [3]) of 2 µg/mL. For the same molecule, the MIC (Staphylococcus aureus [4]) was 1 µg/mL, the MIC (Staphylococcus aureus [5]) was 2 µg/mL and the MIC (Staphylococcus aureus [6]) was 4 µg/mL. For the same molecule, the MIC (Staphylococcus aureus [7]) was 8 µg/mL, the MIC (Staphylococcus aureus [8]) was 2 µg/mL and the MIC (Staphylococcus aureus [9]) was 8 µg/mL. It also gave an HC50 at 1 h [10] of 409 µg/mL, an MIC (Staphylococcus aureus [11]) of 2 µg/mL and an MIC (Staphylococcus aureus [12]) of 2 µg/mL.

Molecule `CCCNC(=O)C[N+](C)(C)CCCCOc1ccc(/C=C/C(=O)c2c(OC)cc3c(c2O)C=CC(C)(C)O3)cc1.[Br-]` has an MIC (Staphylococcus aureus [1]) of 4 µg/mL, an MIC (Staphylococcus aureus [2]) of 2 µg/mL and an MIC (Staphylococcus aureus [3]) of 4 µg/mL. It also gave an MIC (Staphylococcus aureus [4]) of 2 µg/mL, an MIC (Staphylococcus aureus [5]) of 2 µg/mL and an MIC (Staphylococcus aureus [6]) of 2 µg/mL. It also gave an MIC (Staphylococcus aureus [7]) of 4 µg/mL, an MIC (Staphylococcus aureus [8]) of 4 µg/mL and an MIC (Staphylococcus aureus [9]) of 2 µg/mL. The HC50 at 1 h [10] was 410 µg/mL, the MIC (Staphylococcus aureus [11]) was 2 µg/mL and the MIC (Staphylococcus aureus [12]) was 2 µg/mL.

For `COc1cc2c(c(O)c1C(=O)/C=C/c1ccc(OCCCC[N+](C)(C)CC(=O)N3CCSCC3)cc1)C=CC(C)(C)O2.[Br-]`, the MIC (Staphylococcus aureus [1]) was 2 µg/mL, the MIC (Staphylococcus aureus [2]) was 4 µg/mL and the MIC (Staphylococcus aureus [3]) was 4 µg/mL. It also gave an MIC (Staphylococcus aureus [4]) of 2 µg/mL, an MIC (Staphylococcus aureus [5]) of 2 µg/mL and an MIC (Staphylococcus aureus [6]) of 2 µg/mL. For the same molecule, the MIC (Staphylococcus aureus [7]) was 4 µg/mL, the MIC (Staphylococcus aureus [8]) was 4 µg/mL and the MIC (Staphylococcus aureus [9]) was 2 µg/mL. It also gave an HC50 at 1 h [10] of 705 µg/mL, an MIC (Staphylococcus aureus [11]) of 4 µg/mL and an MIC (Staphylococcus aureus [12]) of 4 µg/mL.

With `COc1cc2c(c(O)c1C(=O)/C=C/c1ccc(OCCCCC[N+](C)(C)CC(=O)N(C(C)C)C(C)C)cc1)C=CC(C)(C)O2.[Br-]` the MIC (Staphylococcus aureus [1]) was 2 µg/mL, the MIC (Staphylococcus aureus [2]) was 4 µg/mL and the MIC (Staphylococcus aureus [3]) was 2 µg/mL. The MIC (Staphylococcus aureus [4]) was 1 µg/mL, the MIC (Staphylococcus aureus [5]) was 2 µg/mL and the MIC (Staphylococcus aureus [6]) was 2 µg/mL. It also gave an MIC (Staphylococcus aureus [7]) of 1 µg/mL, an MIC (Staphylococcus aureus [8]) of 2 µg/mL and an MIC (Staphylococcus aureus [9]) of 2 µg/mL. It also gave an HC50 at 1 h [10] of 229 µg/mL, an MIC (Staphylococcus aureus [11]) of 2 µg/mL and an MIC (Staphylococcus aureus [12]) of 2 µg/mL.

In the case of `CCCNC(=O)C[N+](C)(C)CCCOc1ccc(/C=C/C(=O)c2c(OC)cc3c(c2O)C=CC(C)(C)O3)cc1.[Br-]`, the MIC (Staphylococcus aureus [1]) is reported as 4 µg/mL, the MIC (Staphylococcus aureus [2]) is reported as 2 µg/mL and the MIC (Staphylococcus aureus [3]) is reported as 2 µg/mL. It also gave an MIC (Staphylococcus aureus [4]) of 2 µg/mL, an MIC (Staphylococcus aureus [5]) of 2 µg/mL and an MIC (Staphylococcus aureus [6]) of 2 µg/mL. The MIC (Staphylococcus aureus [7]) was 4 µg/mL, the MIC (Staphylococcus aureus [8]) was 4 µg/mL and the MIC (Staphylococcus aureus [9]) was 2 µg/mL. The HC50 at 1 h [10] was 210 µg/mL, the MIC (Staphylococcus aureus [11]) was 2 µg/mL and the MIC (Staphylococcus aureus [12]) was 4 µg/mL.

In the case of `COc1cc2c(c(O)c1C(=O)/C=C/c1ccc(OCCCC[N+](C)(C)CC(=O)N3CCOCC3)cc1)C=CC(C)(C)O2.[Br-]`, the MIC (Staphylococcus aureus [1]) is reported as 16 µg/mL, the MIC (Staphylococcus aureus [2]) is reported as 4 µg/mL and the MIC (Staphylococcus aureus [3]) is reported as 4 µg/mL. The MIC (Staphylococcus aureus [4]) was 4 µg/mL, the MIC (Staphylococcus aureus [5]) was 8 µg/mL and the MIC (Staphylococcus aureus [6]) was 4 µg/mL. For the same molecule, the MIC (Staphylococcus aureus [7]) was 8 µg/mL, the MIC (Staphylococcus aureus [8]) was 8 µg/mL and the MIC (Staphylococcus aureus [9]) was 8 µg/mL. The HC50 at 1 h [10] was greater than 1280 µg/mL, the MIC (Staphylococcus aureus [11]) was 4 µg/mL and the MIC (Staphylococcus aureus [12]) was 8 µg/mL.

For `CCCCN(CCCC)C(=O)C[N+](C)(C)CCCOc1ccc(/C=C/C(=O)c2c(OC)cc3c(c2O)C=CC(C)(C)O3)cc1.[Br-]`, the MIC (Staphylococcus aureus [1]) was 2 µg/mL, the MIC (Staphylococcus aureus [2]) was 1 µg/mL and the MIC (Staphylococcus aureus [3]) was 1 µg/mL. The MIC (Staphylococcus aureus [4]) was 1 µg/mL, the MIC (Staphylococcus aureus [5]) was 2 µg/mL and the MIC (Staphylococcus aureus [6]) was 2 µg/mL. It also gave an MIC (Staphylococcus aureus [7]) of 2 µg/mL, an MIC (Staphylococcus aureus [8]) of 2 µg/mL and an MIC (Staphylococcus aureus [9]) of 2 µg/mL. For the same molecule, the HC50 at 1 h [10] was 434 µg/mL, the MIC (Staphylococcus aureus [11]) was 1 µg/mL and the MIC (Staphylococcus aureus [12]) was 2 µg/mL.

With `CCCCCCNC(=O)C[N+](C)(C)CCCCOc1ccc(/C=C/C(=O)c2c(OC)cc3c(c2O)C=CC(C)(C)O3)cc1.[Br-]` the MIC (Staphylococcus aureus [1]) was 2 µg/mL, the MIC (Staphylococcus aureus [2]) was 4 µg/mL and the MIC (Staphylococcus aureus [3]) was 2 µg/mL. The MIC (Staphylococcus aureus [4]) was 1 µg/mL, the MIC (Staphylococcus aureus [5]) was 2 µg/mL and the MIC (Staphylococcus aureus [6]) was 2 µg/mL. It also gave an MIC (Staphylococcus aureus [7]) of 8 µg/mL, an MIC (Staphylococcus aureus [8]) of 2 µg/mL and an MIC (Staphylococcus aureus [9]) of 4 µg/mL. The HC50 at 1 h [10] was 938 µg/mL, the MIC (Staphylococcus aureus [11]) was 4 µg/mL and the MIC (Staphylococcus aureus [12]) was 2 µg/mL.

Molecule `CCCN(CCC)C(=O)C[N+](C)(C)CCCOc1ccc(/C=C/C(=O)c2c(OC)cc3c(c2O)C=CC(C)(C)O3)cc1.[Br-]` has an MIC (Staphylococcus aureus [1]) of 2 µg/mL, an MIC (Staphylococcus aureus [2]) of 2 µg/mL and an MIC (Staphylococcus aureus [3]) of 2 µg/mL. For the same molecule, the MIC (Staphylococcus aureus [4]) was 2 µg/mL, the MIC (Staphylococcus aureus [5]) was 2 µg/mL and the MIC (Staphylococcus aureus [6]) was 1 µg/mL. It also gave an MIC (Staphylococcus aureus [7]) of 2 µg/mL, an MIC (Staphylococcus aureus [8]) of 2 µg/mL and an MIC (Staphylococcus aureus [9]) of 1 µg/mL. It also gave an HC50 at 1 h [10] of 118 µg/mL, an MIC (Staphylococcus aureus [11]) of 1 µg/mL and an MIC (Staphylococcus aureus [12]) of 2 µg/mL.
